From patent US20050209278A1, “Piperidinyl- and piperazinyl-sulfonylmethyl hydroxamic acids and their use as protease inhibitors” (priority 2002, published 2005)
Where two headings read alike, the source gives them in different places.

Experiments:
[1] = biological target: T1, MMP-2 (Homo sapiens, UniProt P08253); test: In vitro MMP inhibition, Ki determination (fluorogenic substrate II); type: biochemical; conditions: read-out: MMP-2 Ki
T1 construct: made in house; host or cells: MMP-2-transfected p2AHT2 cells
T1 sequence (P08253 110-660): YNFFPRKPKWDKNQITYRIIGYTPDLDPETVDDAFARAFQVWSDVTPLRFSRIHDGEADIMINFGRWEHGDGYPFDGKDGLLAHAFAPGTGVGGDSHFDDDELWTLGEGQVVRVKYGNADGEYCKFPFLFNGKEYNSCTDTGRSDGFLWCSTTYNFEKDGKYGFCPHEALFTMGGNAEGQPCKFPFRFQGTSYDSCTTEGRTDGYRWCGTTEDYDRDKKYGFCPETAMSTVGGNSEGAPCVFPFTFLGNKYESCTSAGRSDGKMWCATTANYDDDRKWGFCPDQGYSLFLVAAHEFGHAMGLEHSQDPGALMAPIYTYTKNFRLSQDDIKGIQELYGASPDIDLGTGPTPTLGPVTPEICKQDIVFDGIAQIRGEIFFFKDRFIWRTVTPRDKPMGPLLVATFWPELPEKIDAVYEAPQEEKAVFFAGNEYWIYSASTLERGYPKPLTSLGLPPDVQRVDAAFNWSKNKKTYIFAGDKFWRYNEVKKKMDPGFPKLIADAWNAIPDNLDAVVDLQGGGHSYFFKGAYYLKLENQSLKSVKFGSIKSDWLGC

[2] = biological target: T2, MMP-9 (Homo sapiens, UniProt P14780); test: as above; type: biochemical
T2 construct: made in house; host or cells: MMP-9-transfected HT1080 cells (spent media)
Outline: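 HT1080-derived MMP-9, activated with APMA, trypsin or MMP-3, incubated 1 hr at room temperature with inhibitor and 4 μM fluorogenic substrate II (at or below Km) in pH 7.5 Tris/NaCl/CaCl2 buffer; ex 330/em 420 nm. Ki from Morrison-equation regression, without substrate correction.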

T2 sequence (P14780 107-707 limits assumed): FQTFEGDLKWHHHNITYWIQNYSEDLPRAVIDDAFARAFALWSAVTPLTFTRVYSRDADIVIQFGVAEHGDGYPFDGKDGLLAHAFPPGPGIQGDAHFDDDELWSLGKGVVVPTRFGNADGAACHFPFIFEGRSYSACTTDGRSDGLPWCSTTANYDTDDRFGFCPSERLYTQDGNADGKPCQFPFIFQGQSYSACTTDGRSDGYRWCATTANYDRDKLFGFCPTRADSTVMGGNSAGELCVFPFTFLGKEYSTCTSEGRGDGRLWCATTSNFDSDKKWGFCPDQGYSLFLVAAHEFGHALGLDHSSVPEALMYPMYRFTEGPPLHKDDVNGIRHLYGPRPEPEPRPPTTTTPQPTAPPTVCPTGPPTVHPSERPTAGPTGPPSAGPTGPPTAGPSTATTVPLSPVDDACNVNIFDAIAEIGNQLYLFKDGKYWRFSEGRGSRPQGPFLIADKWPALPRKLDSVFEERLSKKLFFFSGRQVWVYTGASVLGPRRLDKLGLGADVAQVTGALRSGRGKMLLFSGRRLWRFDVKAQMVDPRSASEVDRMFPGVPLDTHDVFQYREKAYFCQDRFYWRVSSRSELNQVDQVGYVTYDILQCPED

O=C(NO)C1(S(=O)(=O)N2CCN(c3ncc(-c4ccc(Cl)cc4)cn3)CC2)CCOCC1 [Example 66]
Ki ([1]; value not in parenthesis): 2.52 nM
Ki ([2]; value not in parenthesis): 0.52 nM

CCCCc1cnc(N2CCN(S(=O)(=O)C3(C(=O)NO)CCOCC3)CC2)nc1 [Example 105]
Ki ([1]; value not in parenthesis): 2.94 nM
Ki ([2]; value not in parenthesis): 0.74 nM

CCCCc1ccc(N2CCN(S(=O)(=O)C3(C(=O)NO)CCOCC3)CC2)nc1 [Example 168]
Ki ([1]; value not in parenthesis): 0.15 nM
Ki ([2]; value not in parenthesis): 0.16 nM

CCc1ccc(-c2ccc(C3CCN(S(=O)(=O)C4(C(=O)NO)CCOCC4)CC3)nc2)cc1 [Example 393]
Ki ([1]; value outside parentheses): 2.23 nM
Ki ([2]; value outside parentheses): 4.86 nM

CCCCc1ccc(C2CCN(S(=O)(=O)C3(C(=O)NO)CCN(CCOC)CC3)CC2)nc1 [Example 397]
Ki ([1]; value outside parentheses): 0.69 nM
Ki ([2]; value outside parentheses): 0.09 nM

O=C(NO)C1(S(=O)(=O)N2CCC(c3ccc(OCc4ccccc4)cn3)CC2)CCOCC1 [Example 398]
Ki ([1]; value outside parentheses): 1.31 nM
Ki ([2]; value outside parentheses): 5.67 nM

N#Cc1ccc(-c2cnc(N3CCN(S(=O)(=O)C4(C(=O)NO)CCOCC4)CC3)s2)cc1 [Example 399]
Ki ([1]; value outside parentheses): 0.05 nM
Ki ([2]; value outside parentheses): 0.57 nM

CCCC#Cc1cnc(N2CCN(S(=O)(=O)C3(C(=O)NO)CCOCC3)CC2)s1 [Example 400]
Ki ([1]; value outside parentheses): 0.71 nM
Ki ([2]; value outside parentheses): 1.4 nM

CCCCCC/C=C\C1CCN(S(=O)(=O)C2(C(=O)NO)CCOCC2)CC1 [Example 401]
Ki ([1]; value outside parentheses): 12.8 nM
Ki ([2]; value outside parentheses): 4.22 nM

CCCCCC/C=C/C1CCN(S(=O)(=O)C2(C(=O)NO)CCOCC2)CC1 [Example 402]
Ki ([1]; value outside parentheses): 0.83 nM
Ki ([2]; value outside parentheses): 0.19 nM

O=C(NO)C1(S(=O)(=O)N2CCC(COCc3ccc(C(F)(F)F)cc3)CC2)CCOCC1 [Example 403]
Ki ([1]; value outside parentheses): 4.96 nM
Ki ([2]; value outside parentheses): 7.37 nM

O=C(NO)C1(S(=O)(=O)N2CCC(COCc3ccc(OC(F)(F)F)cc3)CC2)CCOCC1 [Example 404]
Ki ([1]; value outside parentheses): 1.41 nM
Ki ([2]; value outside parentheses): 2.29 nM

O=C(NO)C1(S(=O)(=O)N2CCC(COCc3ccc(SC(F)(F)F)cc3)CC2)CCOCC1 [Example 405]
Ki ([1]; value outside parentheses): 1.27 nM
Ki ([2]; value outside parentheses): 3.39 nM

CCCCCCCOC1CCN(S(=O)(=O)C2(C(=O)NO)CCOCC2)CC1 [Example 406]
Ki ([1]; value outside parentheses): 1.76 nM
Ki ([2]; value outside parentheses): 0.76 nM

O=C(NO)C1(S(=O)(=O)N2CCC(c3ccc(-c4cccs4)c(F)c3)CC2)CCOCC1 [Example 407]
Ki ([1]; value outside parentheses): 0.361 nM
Ki ([2]; value outside parentheses): 1.9 nM

O=C(NO)C1(S(=O)(=O)N2CCC(c3ccc(N4CCCC4)cn3)CC2)CCOCC1 [Example 408]
Ki ([1]; value outside parentheses): 6.48 nM
Ki ([2]; value outside parentheses): 10.2 nM

O=C(NO)C1(S(=O)(=O)N2CCC(c3ccc(-c4ccccn4)cn3)CC2)CCOCC1 [Example 409]
Ki ([1]; value outside parentheses): 24.3 nM
Ki ([2]; value outside parentheses): 13.6 nM

CCCCOc1ccc(C2CCN(S(=O)(=O)C3(C(=O)NO)CCOCC3)CC2)nc1 [Example 410]
Ki ([1]; value outside parentheses): 0.55 nM
Ki ([2]; value outside parentheses): 0.55 nM

CCC(F)(F)CCc1ccc(C2CCN(S(=O)(=O)C3(C(=O)NO)CCOCC3)CC2)cn1 [Example 411]
Ki ([1]; value outside parentheses): 15.3 nM
Ki ([2]; value outside parentheses): 2.04 nM

Cc1ccc(-c2csc(N3CCN(S(=O)(=O)C4(C(=O)NO)CCOCC4)CC3)n2)cc1 [Example 412]
Ki ([1]; value outside parentheses): > 10000 nM
Ki ([2]; value outside parentheses): > 10000 nM

Cc1cccc(-c2csc(N3CCN(S(=O)(=O)C4(C(=O)NO)CCOCC4)CC3)n2)c1 [Example 413]
Ki ([1]; value outside parentheses): 6010 nM
Ki ([2]; value outside parentheses): > 10000 nM

O=C(NO)C1(S(=O)(=O)N2CCN(c3nc(-c4ccccc4)cs3)CC2)CCOCC1 [Example 415]
Ki ([1]; value outside parentheses): 2880 nM
Ki ([2]; value outside parentheses): > 10000 nM

Cc1ccc(-c2ccc(C3CCN(S(=O)(=O)C4(C(=O)NO)CCOCC4)CC3)nc2)s1 [Example 416]
Ki ([1]; value outside parentheses): 2.07 nM
Ki ([2]; value outside parentheses): 1.49 nM

O=C(NO)C1(S(=O)(=O)N2CCC(c3ccc(-c4cccc(F)c4)cn3)CC2)CCOCC1 [Example 417]
Ki ([1]; value outside parentheses): 4.13 nM
Ki ([2]; value outside parentheses): 4.1 nM

O=C(NO)C1(S(=O)(=O)N2CCC(c3ccc(OCCC(F)(F)F)cn3)CC2)CCOCC1 [Example 418]
Ki ([1]; value outside parentheses): 0.97 nM
Ki ([2]; value outside parentheses): 1.86 nM

O=C(NO)C1(S(=O)(=O)N2CCN(c3ccc(-c4nn[nH]n4)cc3)CC2)CCOCC1 [Example 419]
Ki ([1]; value outside parentheses): 27.9 nM
Ki ([2]; value outside parentheses): 112 nM

CCCCc1ccc(C2(O)CCN(S(=O)(=O)C3(C(=O)NO)CCOCC3)CC2)nc1 [Example 420]
Ki ([1]; value outside parentheses): 181 nM
Ki ([2]; value outside parentheses): 80.3 nM
